Data set [1] has as its target Dihydroorotate dehydrogenase (quinone), mitochondrial (Homo sapiens, UniProt Q02127). As to the kind of experiment: Inhibition of human DHODH.
The subject of another data set is HaCaT. As to the kind of experiment: Antiproliferative activity against human HaCaT cells assessed as inhibition of cell proliferation. It counts as cell-based.
Data set [2] in a line: Lipophilicity, log D of compound at pH 7.4 in octanol/phosphate buffer measured by shake flask method. It counts as physicochemical.

Chain of Dihydroorotate dehydrogenase (quinone), mitochondrial (Q02127 whole entry): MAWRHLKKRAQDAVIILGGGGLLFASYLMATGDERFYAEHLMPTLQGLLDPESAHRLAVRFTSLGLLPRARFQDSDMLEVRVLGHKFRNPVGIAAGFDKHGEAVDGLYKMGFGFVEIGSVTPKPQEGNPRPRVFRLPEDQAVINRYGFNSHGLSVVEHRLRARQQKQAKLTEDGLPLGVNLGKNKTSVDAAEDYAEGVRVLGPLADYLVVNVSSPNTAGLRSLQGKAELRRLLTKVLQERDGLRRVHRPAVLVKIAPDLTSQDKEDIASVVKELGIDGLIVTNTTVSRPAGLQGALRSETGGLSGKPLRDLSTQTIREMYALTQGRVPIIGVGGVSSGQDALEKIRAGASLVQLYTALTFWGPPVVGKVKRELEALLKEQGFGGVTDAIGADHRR

`COc1cc(-c2cc(C(=O)O)c3ccccc3n2)ccc1OCC(=O)NCc1ccco1`: the values for the IC50 (in data set [1]; in the data set with HaCaT) were 1 µM and over 300 µM, respectively. This molecule had a logD in data set [2] of -0.3.
For `COc1cc(-c2cc(C(=O)O)c3ccccc3n2)ccc1OCC(=O)Nc1cccc(C)c1`, in that order: 1.9 µM, 225 µM and 1.5.
Turning to `COc1cc(-c2cc(C(=O)O)c3ccccc3n2)ccc1OCC(=O)Nc1ccc(C)cc1`, the IC50 in data set [1] was 3.8 µM; in the data set with HaCaT, over 300 µM. Besides, the log distribution coefficient (logD) in data set [2] amounted to 1.2.
Consider `CCCCCCNC(=O)COc1ccc(-c2cc(C(=O)O)c3ccccc3n2)cc1OC`, for which the IC50 in data set [1] is 2.7 µM; in the data set on HaCaT it was over 300 µM. The pH-dependent lipophilicity (logD) in data set [2] is 1.
Take `COc1cc(-c2cc(C(=O)O)c3ccccc3n2)ccc1OCC(=O)Nc1ccc(Cl)cc1`: the IC50 in data set [1] is 0.5 µM; in the data set with HaCaT it was over 300 µM. In addition, the logD in data set [2] came out at 1.5.
Turning to `COc1cc(-c2cc(C(=O)O)c3ccccc3n2)ccc1OCC(=O)Nc1ccc(F)cc1`, the 50% inhibitory concentration (IC50) came out at 1.6 µM in data set [1] and 286 µM with HaCaT. Further, in data set [2], the logD is 1.1.
On to `COc1cc(-c2cc(C(=O)O)c3ccccc3n2)ccc1OCC(=O)Nc1cccc(Cl)c1`, for which the figures for the IC50 (in data set [1]; in the data set with HaCaT) were 0.5 µM and 192 µM, respectively. In data set [2], this molecule showed a logD of 2.3.
Regarding `COc1cc(-c2cc(C(=O)O)c3ccccc3n2)ccc1OCC(=O)Nc1ccccc1Cl`, the IC50 in data set [1] came to 1.3 µM; with HaCaT it was 210 µM. The logD in data set [2] stood at 1.6.
For `COc1cc(-c2cc(C(=O)O)c3ccccc3n2)ccc1OCC(=O)Nc1cccc(C(F)(F)F)c1`, the IC50 worked out at 0.5 µM in data set [1] and 160 µM in the data set on HaCaT. Moreover, the logD in data set [2] worked out at 1.3.
Consider `COc1cc(-c2cc(C(=O)O)c3ccccc3n2)ccc1OCC(=O)NCc1cccnc1`, for which the IC50 is 0.7 µM in data set [1] and over 300 µM in the data set on HaCaT. Besides, the logD in data set [2] was -0.8.
As to `COc1cc(-c2cc(C(=O)O)c3ccccc3n2)ccc1OCC(=O)Nc1ccccc1F`, the IC50 came out at 0.5 µM in data set [1] and 161 µM with HaCaT. For the same molecule, the log distribution coefficient (logD) in data set [2] was 0.9.
With `COc1cc(-c2cc(C(=O)O)c3ccccc3n2)ccc1OCC(=O)Nc1cccc(F)c1`, the values for the IC50 (in data set [1]; in the data set with HaCaT) were 2.1 µM and 148 µM, respectively. In data set [2], this molecule registered a logD of 1.6.
For `COc1cc(-c2cc(C(=O)O)c3ccccc3n2)ccc1OCC(=O)NC1CCCCC1`, in that order: 1.7 µM, over 300 µM and 0.8.
On to `COc1cc(-c2cc(C(=O)O)c3ccccc3n2)ccc1OCC(=O)Nc1ccccc1`, for which the results for the IC50 (in data set [1]; with HaCaT) were 3.9 µM and over 300 µM, respectively. This molecule showed a logD in data set [2] of 0.7.
For the molecule `COc1cc(-c2cc(C(=O)O)c3ccccc3n2)ccc1OCC(=O)NCc1cccs1`, the half-maximal inhibitory concentration (IC50) in data set [1] was 3.1 µM; in the data set on HaCaT, over 300 µM. In data set [2], this molecule showed a logD of 0.
On the same counts, the results for `COc1cc(-c2cc(C(=O)O)c3ccccc3n2)ccc1OCC(=O)NC12CC3CC(CC(C3)C1)C2` are 1.7 µM, 180 µM and 1.
Take `COc1cc(-c2cc(C(=O)O)c3ccccc3n2)ccc1OCC(=O)Nc1ccc(C(F)(F)F)cc1`: the IC50 was determined as 2.4 µM in data set [1] and 150 µM in the data set with HaCaT. Also, the logD in data set [2] was 1.6.
On the same counts, the results for `COc1cc(-c2cc(C(=O)O)c3ccccc3n2)ccc1OCC(=O)Nc1ccccc1C` are 5.9 µM, 230 µM and 0.8.
On the same counts, the results for `COc1cc(-c2cc(C(=O)O)c3ccccc3n2)ccc1OCC(=O)Nc1ccccc1C(F)(F)F` are 0.3 µM, 102 µM and 1.3.
With `COc1cc(-c2cc(C(=O)O)c3ccccc3n2)ccc1OCC(=O)NCc1ccccc1`, the IC50 in data set [1] is 3.7 µM; with HaCaT, over 300 µM. This molecule also yielded a logD in data set [2] of 0.4.

What is called IC50 is the point on the concentration scale where inhibition reaches its midpoint. One may read the logD as the decadic logarithm of the distribution of all forms, ionised or not, between an organic phase and buffer at a given pH. Low values mean lower lipophilicity, high ones higher lipophilicity.
